According to patent US20180000737A1, “INJECTABLE AGGREGATES FOR JOINT AND SOFT TISSUE DISTRESS” (VISGO THERAPEUTICS, INC., priority 2015, published 2018):

Conditions: sheep, in vivo, 7 days
Excerpt: In another embodiment, the present disclosure provides a composition that achieves both immediate and extended release of an active pharmaceutical ingredient (API) upon administration to a subject, the composition comprising chitosan particles and API, the release occurring through at least one of diffusion of API from the particles and breakdown of the particles to release entrapped API. In additional embodiments, the present disclosure provides a composition that achieves both immediate and extended release of an API which is characterized by any one or more of the following exemplary features: the chitosan particles comprise crosslinked chitosan; the API is an NSAID; the API is diclofenac which optionally may be in whole or in part in crystalline form; the immediate release occurs over a period of 12 hours from the administration, and releases from 5 to 70% of API from the particles; the extended release occurs over a period of 0.5 to 7 days from administration, and releases 5 to 70% of the API from the particles; the particles are taken up by the synovium after administration to the subject. […] Accordingly, the incorporation of API into a crosslinked chitosan particle as disclosed herein may provide an extended release of API into the synovial fluid.

Compound: O=C(O)Cc1ccccc1Nc1c(Cl)cccc1Cl [diclofenac, 2-(2-(2,6-dichlorophenylamino)phenyl)acetic acid]
- synovial fluid concentration of diclofenac: about 0.05 mg/mL
